Data taken from patent US11434242B2, “Dopamine-b-hydroxylase inhibitors” (BIAL-PORTELA & Cª, S.A., priority 2017, dated 2022).
Read-outs that look alike come from different tables or passages of the source. Marks after values point to notes of the source that are not given here.

What was measured:
[1] = biological target: T1, DβH (Homo sapiens, UniProt P09172); assay: DβH inhibition assay in SK-N-SH cellular homogenates (tyramine to octopamine); type: biochemical; settings: SK-N-SH cell homogenate
T1 construct: cellular homogenate (75 μg total protein); host or cells: SK-N-SH cells (homogenate)
T1 sequence (P09172 1-617): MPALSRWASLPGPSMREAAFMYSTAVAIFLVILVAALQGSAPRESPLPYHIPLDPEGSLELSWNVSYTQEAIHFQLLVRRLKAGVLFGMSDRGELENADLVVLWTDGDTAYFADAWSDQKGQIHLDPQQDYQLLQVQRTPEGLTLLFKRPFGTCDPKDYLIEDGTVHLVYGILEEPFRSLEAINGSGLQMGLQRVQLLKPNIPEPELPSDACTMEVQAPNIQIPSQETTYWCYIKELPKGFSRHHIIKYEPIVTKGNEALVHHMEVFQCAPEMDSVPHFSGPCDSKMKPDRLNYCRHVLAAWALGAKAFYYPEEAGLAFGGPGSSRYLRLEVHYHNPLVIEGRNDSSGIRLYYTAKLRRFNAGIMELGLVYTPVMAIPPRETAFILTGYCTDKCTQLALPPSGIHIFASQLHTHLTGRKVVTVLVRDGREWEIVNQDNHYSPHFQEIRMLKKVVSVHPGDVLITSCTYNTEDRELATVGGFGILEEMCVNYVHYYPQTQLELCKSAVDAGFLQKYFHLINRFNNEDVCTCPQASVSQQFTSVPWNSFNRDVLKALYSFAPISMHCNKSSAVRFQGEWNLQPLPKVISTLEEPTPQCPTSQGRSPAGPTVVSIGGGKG

[2] = Evaluation of pharmacokinetic profile: plasma and brain concentrations after oral dosing; type: in vivo, Wistar rats; settings: rat, 10 mg/kg po; for concentration at 1 h / concentration at 2 h: male, Wistar; for concentration at 1 h: 1 h post-dosing; for concentration at 2 h: 2 h post-dosing
Method: Adult male Wistar rats were kept under controlled environmental conditions (12 h light/dark cycle, room temperature 22±1° C. and humidity 50±5%, food and tap water ad libitum). On the day before the experiment, the animals were fasted. In experiments designed to evaluate the pharmacokinetic profile of Examples 56, 66, 199 and 232, rats (n=4) were administered orally (p.o.) with examples 56, 66, 199 and 232 (10 mg/kg/4 mL; vehicle: 40% kleptose) and plasma and brain samples were collected from anaesthetized animals at 1 and 2 h post-dosing. Animals were anaesthetized by intraperitoneal administration of sodium pentobarbital (60 mg/kg). Blood was collected from cardiac punction into heparinised tubes and kept on ice until centrifugation at 1,500 g for 15 min at 4° C. Plasma and brain samples were stored at less than −20° C. until analysis.
After thawing, 200 μL of acetonitrile 0.1% formic acid was added to 100 μL of plasma. The samples were vortexed and centrifuged for 10 min at 10 000 g. Supernatant was filtered and injected into a mass spectrometer.
After thawing and weighing, water was added to the brain to give a tissue concentration of […]. The samples were then homogenized using a Heidolph DIAX 900 mixer and transferred to plastic tubes. Following centrifugation at 10 000 g for 20 min, supernatant was taken and treated as described for plasma.

[3] = biological target: T2, Dopamine beta hydroxylase (Homo sapiens, UniProt P09172); assay: Dopamine beta hydroxylase activity in human plasma; type: biochemical; settings: for Plasma (1 μM), activity in % of control: inhibitor 1 μM
T2 construct: 125 μl of plasma; tissue Instituto Português do Sangue Transplantação; host or cells: human plasma from healthy donors
T2 sequence (P09172 40-617 limits assumed): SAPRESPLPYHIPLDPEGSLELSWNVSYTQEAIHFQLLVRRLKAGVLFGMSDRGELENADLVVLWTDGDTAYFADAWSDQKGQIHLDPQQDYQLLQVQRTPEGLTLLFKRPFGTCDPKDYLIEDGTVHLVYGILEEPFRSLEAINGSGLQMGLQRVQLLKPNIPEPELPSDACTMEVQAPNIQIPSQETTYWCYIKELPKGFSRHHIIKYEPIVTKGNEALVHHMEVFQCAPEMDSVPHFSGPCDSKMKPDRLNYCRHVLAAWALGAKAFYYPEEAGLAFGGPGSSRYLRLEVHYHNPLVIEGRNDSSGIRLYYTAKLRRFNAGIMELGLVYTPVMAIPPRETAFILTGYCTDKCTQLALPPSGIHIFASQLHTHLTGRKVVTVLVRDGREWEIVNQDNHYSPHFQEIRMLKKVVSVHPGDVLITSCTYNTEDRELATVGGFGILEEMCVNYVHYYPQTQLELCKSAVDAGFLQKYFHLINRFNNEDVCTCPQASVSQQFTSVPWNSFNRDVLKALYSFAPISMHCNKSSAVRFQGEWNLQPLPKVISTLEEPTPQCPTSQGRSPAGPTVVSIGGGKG
Summary of the method: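 Octopamine production from tyramine over 45 min at 37° C, measured photometrically at 330 nm after SCX extraction and periodate oxidation against an octopamine standard curve, indicates plasma DβH activity. Compounds tested at final 10, 100 and 1000 nM in human plasma, pH 5.0 cofactor buffer, 10 min preincubation; results as % of control.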

[4] = literature; cited from earlier work
[5] = system: DβH; settings: Stanley et al., Br. J. Pharmacol. 1997; cited from earlier work
[6] = brain, read-out: Cbr (ng/g) at 1 h
[7] = brain, read-out: Cbr (ng/g) at 2 h
[8] = plasma, read-out: Cpl (ng/mL) at 1 h
[9] = plasma, read-out: Cpl (ng/mL) at 2 h

Compound	concentration at 1 h [2, 6]	concentration at 2 h [2, 7]	concentration at 1 h [2, 8]	concentration at 2 h [2, 9]	peripheral selectivity (exposure in plasma compared to brain) [2]	Plasma (0.1 μM), activity in % of control ([3]; inhibitor 0.1 μM)	toxic side effects [4]	further results
NC(=O)Cc1[nH]c(=S)n2c1[C@@H]1C[C@]1(c1cc(Cl)ccc1F)C2 [Example 56]	20 ng/g	21 ng/g	1500 ng/mL	1130 ng/mL	peripherally selective	38.5 % of control	–	SKNSH (0.1 μM), activity in % of control ([1]; inhibitor 0.1 μM): 45.6 % of control; SKNSH (1 μM), activity in % of control ([1]; inhibitor 1 μM): 5.2 % of control; Plasma (1 μM), activity in % of control [3]: 5.5 % of control
O=C(Cc1[nH]c(=S)n2c1[C@@H]1C[C@]1(c1cc(Cl)ccc1F)C2)N1CCOCC1 [Example 66, 2-((5aS,6aR)-5a-(5-chloro-2-fluorophenyl)-3-thioxo-2,3,5,5a,6,6a-hexahydrocyclopropa[3,4]pyrrolo[1,2-c]imidazol-1-yl)-1-morpholinoethan-1-one]	0 ng/g	0 ng/g	779 ng/mL	429 ng/mL	peripherally selective	52.3 % of control	–	Plasma (1 μM), activity in % of control [3]: 6.4 % of control
Cl.Fc1cc(F)c(F)c([C@H]2Cc3c(CCN4CCOCC4)[nH]c(=S)n3C2)c1F [Example 199, (R)-1-(2-morpholinoethyl)-6-(2,3,5,6-tetrafluorophenyl)-2,5,6,7-tetrahydro-3H-pyrrolo[1,2-c]imidazole-3-thione Hydrochloride]	45 ng/g	0 ng/g	1640 ng/mL	777 ng/mL	peripherally selective	0.6 % of control	–	Plasma (0.01 μM), activity in % of control ([3]; inhibitor 0.01 μM): 27.4 % of control; Plasma (0.01 μM), activity in % of control, re-test (asterisked) ([3]; inhibitor 0.01 μM, re-tested under the same experimental conditions, asterisked data believed to be correct): 119.3* % of control; Plasma (0.1 μM), activity in % of control, re-test (asterisked) ([3]; inhibitor 0.1 μM, re-tested under the same experimental conditions, asterisked data believed to be correct): 84.9* % of control
Cn1c(CC(=O)N[C@@H]2CCOC2)c2n(c1=S)C[C@H](c1c(F)ccc(Br)c1F)C2 [Example 232, 2-((S)-6-(3-bromo-2,6-difluorophenyl)-2-methyl-3-thioxo-2,5,6,7-tetrahydro-3H-pyrrolo[1,2-c]imidazol-1-yl)-N—((R)-tetrahydrofuran-3-yl)acetamide]	24 ng/g	46 ng/g	1710 ng/mL	1310 ng/mL	peripherally selective	6.4 % of control	–	Plasma (0.01 μM), activity in % of control ([3]; inhibitor 0.01 μM): 48.8 % of control
CCN(CC)C(=S)S [diethyldithiocarbamate]	–	–	–	–	–	–	toxic side effects	–
CCN(CC)C(=S)SSC(=S)N(CC)CC [disulfiram]	–	–	–	–	–	–	toxic side effects	–
CCCCc1ccc(C(=O)O)nc1 [fusaric acid]	–	–	–	–	–	–	toxic side effects	–
NCc1c[nH]c(=S)n1[C@H]1CCc2c(F)cc(F)cc2C1 [nepicastat]	–	–	–	–	–	–	–	crossing of the BBB [4]: cross the BBB; IC50 [5]: 9 nM
